Results from patent EP0608858A1, “5-Membered heterocycles as aggregation inhibitors” (Dr. Karl Thomae GmbH, priority 1993, dated 1994).
Counter-ions that a name gives are not always drawn.

Key:
Humanthrombozyten [1] = experiment: Competitive binding of ³H-BIBU 52 / test substance to human platelets; details: human platelets in plasma, ³H-BIBU 52 5 nM, 20 min at room temperature; read-out: Kompetitive Bindung ³H-BIBU 52 Textsubstanz an Humanthrombozyten IC₅₀
From the text: 1. Kompetitive Bindung ³H-BIBU 52/Testsubstanz an Humanthrombozyten:
Eine Suspension von Humanthrombozyten in Plasma wird mit ³H-BIBU 52 [= (3S,5S)-5-[(4'-Amidino-4-biphenylyl)oxymethyl]-3-[(carboxyl)methyl]-2-pyrrolidinon[3-³H-4-biphenylyl]], das den literaturbekannten Liganden ¹²⁵I-Fibrinogen ersetzt, (siehe deutsche Patentanmeldung P 42 14 245.8 der gleichen Anmeldezin vom 30. 04. 1992, internes Zeichen: Case 5/1093-FL) und verschiedenen Konzentrationen der zu testenden Substanz inkubiert. Der freie und gebundene Ligand wird durch Zentrifugation getrennt und durch Szintillationszählung quantitativ bestimmt. Aus den Meßwerten wird die Hemmung der ³H-BIBU 52-Bindung durch die Testsubstanz bestimmt.
Hierzu wird aus einer Antikubitalvene Spenderblut entnommen und mit Trinatriumzitrat antikoaguliert (Endkonzentration 13 mM) . Das Blut wird 10 Minuten bei 170 x g zentrifugiert und das überstehende plättchenreiche Plasma (PRP) abgenommen. Das Restblut wird zur Gewinnung von Plasma nocheinmal scharf abzentrifugiert. Das PRP wird mit autologem Plasma 1:10 verdünnt. 750 µl werden mit 50 µl physiologischer Kochsalzlösung, 100 µl Testsubstanzlösung, 50 µl ¹⁴C-Sucrose (3.700 Bq) und 50 µl ³H-BIBU 52 (Endkonzentration: 5 nM.) bei Raumtemperatur 20 Minuten inkubiert. Zur Messung der unspezifischen Bindung wird anstelle der Testsubstanz 5 µl BIBU 52 (Endkonzentration: 30 µM) eingesetzt. Die Proben werden 20 Sekunden bei 10000 x g zentrifugiert und der Überstand abgezogen. 100 µl hiervon werden zur Bestimmung des freien Liganden gemessen. Das Pellet wird in 500 µl 0,2N NaOH gelöst, 450 µl werden mit 2 ml Szintillator und 25 µl 5N HCl versetzt und gemessen. Das im Pellet noch verbliebene Restplasma wird aus dem ¹⁴C-Gehalt bestimmt, der gebundene Ligand aus der ³H-Messung. Nach Abzug der unspezifischen Bindung wird die Pelletaktivität gegen die Konzentration der Testssubstanzaufgetragen und die Konzentration für eine 50%ige Hemmung der Bindung ermittelt.

Thrombozytenaggregation = experiment: Collagen-induced platelet aggregation (Born and Cross) in platelet-rich plasma; assay type: cell-based, gesunder Versuchspersonen; details: human platelet-rich plasma, 10 min preincubation with substance at 37°C, read-out: Hemmung der Plättchenaggregation EC₅₀
From the text: 2. Antithrombotische Wirkung
Die Thrombozytenaggregation wird nach der Methode von Born und Cross (J. Physiol. 170, 397 (1964)) in plättchenreichem Plasma gesunder Versuchspersonen gemessen. Zur Gerinnungshemmung wird das Blut mit Natriumcitrat 3,14 % im Volumenverhältnis 1:10 versetzt.
Collagen-induzierte Aggregation
Der Verlauf der Abnahme der optischen Dichte der Plättchensuspension wird nach Zugabe der aggregationsauslösenden Substanz photometrisch gemessen und registriert. Aus dem Neigungswinkel der Dichtekurve wird auf die Aggregationsgeschwindigkeit geschlossen. Der Punkt der Kurve, bei dem die größte Lichtdurchlässigkeit vorliegt, dient zur Berechnung der "optical density".
Die Collagen-Konzentration wird möglichst gering gewählt, aber doch so, daß sich eine irreversibel verlaufende Reaktionskurve ergibt. Verwendet wird das handelsübliche Collagen der Firma Hormonchemie, München. Vor der Collagen-Zugabe wird das Plasma jeweils 10 Minuten mit der Substanz bei 37°C inkubiert.
Aus den Konzentrations-Wirkungskurven wird die EC₅₀ berechnet, die die Konzentration beschreibt, bei der die Änderung der "optical density" halbmaximal gehemmt ist.

Humanthrombozyten [2] = experiment: Ex vivo inhibition of collagen-induced aggregation of human platelets by rat plasma obtained after oral dosing; assay type: in vivo; details: rat plasma obtained after oral 10 mg/kg, after 3 hours
Protocol: Außerdem erzielt man beispielsweise mit dem nach peroraler Gabe vom 10 mg/kg der Verbindung des Beispiels 2(19) gewonnenen Rattenplasma ex vivo nach 3 Stunden eine 80%ige Hemmung der durch Kollagen induzierten Aggregration von Humanthrombozyten.

Mäusen = experiment: Tolerability after intravenous administration to mice; assay type: in vivo; details: 30 mg/kg, 3 mice each

Compound	IC50 (Humanthrombozyten [1]) [µM]	EC50 (Thrombozytenaggregation) [µM]	Hemmung der durch Kollagen induzierten Aggregration von Humanthrombozyten (Humanthrombozyten [2]) [%]	Tiere gestorben (Mäusen)
CCCCS(=O)(=O)NC(Cc1cn(-c2ccc(-c3ccc(C(=N)N)cc3)nn2)cn1)C(=O)O (centres unmarked) [3(3), 1-[6-(4-Amidino-phenyl)-3-pyridazinyl]-4-[2-(n-butan-sulfonylamino)-2-carboxy-ethyl]-imidazol-hydrochlorid]	0.0016	0.04	–	–
CCOC(=O)[C@H]1CC[C@H](c2nnc(-c3ccc(C4CCNCC4)cc3)s2)CC1.Cl [2(19), 2-[trans-4-(Ethoxycarbonyl)-cyclohexyl]-5-[4-(4-piperidyl)-phenyl]-1,3,4-thiadiazol-hydrochlorid]	–	–	80	–
Cl.O=C(O)CCCCc1nnc(-c2ccc(C3CCNCC3)cc2)s1 [Beispiel 5, 2-(4-Carboxy-butyl)-5-[4-(4-piperidyl)-phenyl]-1,3,4-thiadiazol-hydrochlorid]	0.51	0.32	–	keine Tiere gestorben
Cl.O=C(O)[C@H]1CC[C@H](c2nnc(-c3ccc(C4CCNCC4)cc3)s2)CC1 [5(3), 2-(trans-4-Carboxy-cyclohexyl)-5-[4-(4-piperidyl)-phenyl]-1,3,4-thiadiazol-hydrochlorid]	0.011	0.1	–	keine Tiere gestorben
O=C(O)CCCCc1nnc(-c2ccc(C3CCNCC3)cc2)o1 [3(1), 2-(4-Carboxybutyl)-5-[4-(4-piperidyl)-phenyl]-1,3,4-oxadiazol]	6.8	4.4	–	–
O=C(O)CCNC(=O)c1nnc(-c2ccc(C3CCNCC3)cc2)s1 [Beispiel 3, 2-[(2-Carboxyethyl)-aminocarbonyl]-5-[4-(4-piperidyl)-phenyl]-1,3,4-thiadiazol-hydrochlorid]	0.4	0.88	–	–
COC(=O)CCNC(=O)c1nnc(-c2ccc(C3CCNCC3)cc2)s1 [Beispiel 2, 2-[[2-(Methoxycarbonyl)-ethyl]-aminocarbonyl]-5-[4-(4-piperidyl)-phenyl]-1,3,4-thiadiazol-hydrochlorid]	24	3	–	–
COC(=O)[C@H]1CC[C@H](c2nnc(-c3ccc(C4CCNCC4)cc3)s2)CC1 [2(3), 2-[trans-4-(Methoxycarbonyl)-cyclohexyl)-5-[4-(4-piperidyl)-phenyl]-1,3,4-thiadiazol-hydrochlorid]	0.55	0.38	–	–
